Values of other authors in article PMC8704606, “The Artemiside-Artemisox-Artemisone-M1 Tetrad: Efficacies against Blood Stage P. falciparum Parasites, DMPK Properties, and the Case for Artemiside” (Pharmaceutics, 2021).

Experiments:
[1] = test system: Toxoplasma gondii (Tg); set-up: method as in PMID 19635951; conditions: read-out: EC50 against Tg in vitro; cited from earlier work
[2] = test system: asexual blood stages of Pf W2 (drug resistant); set-up: method as in PMID 29866868, PMID 31998692; conditions: asexual blood stage Pf W2, multidrug resistant; SYBR Green I; ± SEM; cited from earlier work
[3] = test system: TM93-C1088 (atovaquone and CQ resistant); set-up: method as in ref S2; conditions: [3H]-hypoxanthine assay; ref S2; read-out: Antimalarial activities IC50 TM93-C1088; cited from earlier work
[4] = test system: asexual blood stages of Pf K1 (drug resistant); set-up: method as in PMID 29866868, PMID 31998692; conditions: asexual blood stage Pf K1, multidrug resistant; SYBR Green I; ± SEM; cited from earlier work
[5] = test system: early-stage (EG) Pf NF54 gametocytes; set-up: method as in PMID 29866868; conditions: early-stage gametocytes >95% stages II-III; 48 h incubation; ± SEM; cited from earlier work
[6] = test system: asexual blood stages of Pf NF54 (drug sensitive); set-up: method as in PMID 29866868, PMID 31998692; conditions: asexual blood stage Pf NF54, CQ sensitive; SYBR Green I; ± SEM; cited from earlier work
[7] = test system: fetal rat brain stem cells; conditions: cited from earlier work
[8] = test system: CQ-sensitive P. berghei N strain; conditions: Peters four-day test, mice, ref S4 (24), cited from earlier work
[9] = test system: CQ-resistant P. yoelii NS strain; conditions: Peters four-day test, mice, subcutaneous; ref S4 (24); cited from earlier work
[10] = test system: late-stage (LG) Pf NF54 gametocytes; set-up: method as in PMID 29866868; conditions: late-stage gametocytes >90% stages IV-V; 48 h incubation; ± SEM; cited from earlier work
[11] = test system: TM-C2B; set-up: method as in ref S2; conditions: [3H]-hypoxanthine assay; ref S2; read-out: Antimalarial activities IC50 TM-C2B; cited from earlier work
[12] = test system: TM91-C235 (CQ and MFQ resistant); set-up: method as in ref S2; conditions: [3H]-hypoxanthine assay; ref S2; read-out: Antimalarial activities IC50 TM91-C235; cited from earlier work
[13] = test system: W2 (CQ resistant); set-up: method as in ref S2; conditions: [3H]-hypoxanthine assay; ref S2; read-out: Antimalarial activities IC50 W2; cited from earlier work
[14] = test system: 7G8 (CQ resistant); set-up: method as in ref S2; conditions: [3H]-hypoxanthine assay; ref S2; read-out: Antimalarial activities IC50 7G8; cited from earlier work
[15] = single dose 10 mg/kg, healthy Aotus monkeys; cited from earlier work

Compound: C[C@H]1[C@H](OC(=O)CCC(=O)O)O[C@@H]2O[C@@]3(C)CC[C@H]4[C@H](C)CC[C@@H]1[C@@]24OO3 [Artesunate 4, Artesunate]
- EC50 [1]: 213 nM
- IC50 [2]: 2.4 ± 0.4 nM
- IC50 [3]: 1.4 ± 0.1 nM
- IC50 [4]: 4 ± 1 nM
- IC50 [5]: 62.8 ± 3 nM
- IC50 [6]: 3 ± 0.29 nM
- Viability NOEC [7]: 0.1 µg/mL
- Neurofilaments IC50 ([7]; effect on the cytoskeleton on day 7, ref S4 (24)): 5.0 µg/mL
- P. berghei ED90 po ([8]; oral daily day 0-3): 7.1 mg/kg
- P. berghei ED90 sc ([8]; subcutaneous daily day 0-3): 7.2 mg/kg
- P. yoelii ED90 sc [9]: 22.0 mg/kg
- IC50 [10]: 259 ± 80 nM
- IC50 [11]: 2.5 ± 0.5 nM
- IC50 [12]: 2.9 ± 1.4 nM
- IC50 [13]: 3 ± 1.6 nM
- IC50 [14]: 1.5 ± 0.2 nM
- ex vivo antimalarial activity observable up to (post dose) [15]: up to 1 h
